From ChEMBL document CHEMBL5550176, “Destruxin E backbone modification effects on osteoclast Morphology: Synthesis and SAR study of N-Desmethyl and N-Methyl analogs” (2024) come the findings set out here.

Numbered stars: 1 amine (or outer) side, 2 acyl side, 3 side chain; on linkers, the order of the positions; unused ones are H or OH. Square brackets hold non-standard residues; d marks the D form. Peptide text beside a SMILES is read from it. X1 = O=C([C@@H](C[C@H]1CO1)O[*:1])[*:2]; NMeI = CC[C@H](C)[C@H](NC)C(=O)O; NMeβAla = CN(CCC(=O)[*:2])[*:1]; NMeV = CN[C@H](C(=O)O)C(C)C; NMeA = CN[C@@H](C)C(=O)O; βAla = NCCC(=O)O

This test deals with Osteoclast. The test can be described thus: Induction of morphological changes in mouse Osteoclast cells incubated for 24 hrs by TRAP staining based fluorescence microscopy analysis. Format: functional.
Regarding `CC[C@H](C)[C@@H]1NC(=O)[C@@H]2CCCN2C(=O)[C@@H](C[C@H]2CO2)OC(=O)CCNC(=O)[C@H](C)NC(=O)[C@H](C(C)C)N(C)C1=O` (cyclo(A[βAla][X1]PI[NMeV])), the Activity was greater than 50 µM.
The figure for `CC[C@H](C)[C@H]1C(=O)N(C)[C@@H](C(C)C)C(=O)N(C)[C@@H](C)C(=O)NCCC(=O)O[C@H](C[C@H]2CO2)C(=O)N2CCC[C@H]2C(=O)N1C` (cyclo([NMeA][βAla][X1]P[NMeI][NMeV])) is 12.5 µM; for `CC[C@H](C)[C@@H]1NC(=O)[C@@H]2CCCN2C(=O)[C@@H](C[C@H]2CO2)OC(=O)CCNC(=O)[C@H](C)N(C)C(=O)[C@H](C(C)C)NC1=O` (cyclo(IV[NMeA][βAla][X1]P)) it is 1.6 µM; for `CC[C@H](C)[C@@H]1NC(=O)[C@@H]2CCCN2C(=O)[C@@H](C[C@H]2CO2)OC(=O)CCN(C)C(=O)[C@H](C)N(C)C(=O)[C@H](C(C)C)N(C)C1=O` (cyclo(I[NMeV][NMeA][NMeβAla][X1]P)) it is 50 µM.
